Measurements taken from patent US20070196277A1, “Compositions and Methods for the Direct Therapy of Tumors” (priority 2006, published 2007).
Like-named read-outs stand apart in the source and are kept apart here.

Legend:
[1] = cited from earlier work
[2] = tested on: intracerebral T9 gliosarcoma tumors; conditions: same dose delivered systemically; cited from earlier work
[3] = tested on: Walker Carcinosarcoma 256 tumors; conditions: cited from earlier work
[4] = cited from earlier work; remark: listed apart in the source
[5] = cited from earlier work; remark: listed apart in the source
marrow cells = conditions: in vitro human bone marrow assay; cited from earlier work
rat brain = tested on: rat brain
From the text: This conversion is based upon comparison of the mass of the rat brain (approximately 2.5 gms) and human brain (approximately 1350 gms).

cat brain = tested on: cat brain
From the text: This conversion is based upon comparison of the cat brain (approximately 20 gms) and human brain (approximately 1350 gms).

[6] = cited from earlier work; remark: listed apart in the source
[7] = molecular target: T1, dihydrouracil dehydrogenase (Homo sapiens, UniProt Q12882); conditions: cited from earlier work
T1 sequence (Q12882 4-1025): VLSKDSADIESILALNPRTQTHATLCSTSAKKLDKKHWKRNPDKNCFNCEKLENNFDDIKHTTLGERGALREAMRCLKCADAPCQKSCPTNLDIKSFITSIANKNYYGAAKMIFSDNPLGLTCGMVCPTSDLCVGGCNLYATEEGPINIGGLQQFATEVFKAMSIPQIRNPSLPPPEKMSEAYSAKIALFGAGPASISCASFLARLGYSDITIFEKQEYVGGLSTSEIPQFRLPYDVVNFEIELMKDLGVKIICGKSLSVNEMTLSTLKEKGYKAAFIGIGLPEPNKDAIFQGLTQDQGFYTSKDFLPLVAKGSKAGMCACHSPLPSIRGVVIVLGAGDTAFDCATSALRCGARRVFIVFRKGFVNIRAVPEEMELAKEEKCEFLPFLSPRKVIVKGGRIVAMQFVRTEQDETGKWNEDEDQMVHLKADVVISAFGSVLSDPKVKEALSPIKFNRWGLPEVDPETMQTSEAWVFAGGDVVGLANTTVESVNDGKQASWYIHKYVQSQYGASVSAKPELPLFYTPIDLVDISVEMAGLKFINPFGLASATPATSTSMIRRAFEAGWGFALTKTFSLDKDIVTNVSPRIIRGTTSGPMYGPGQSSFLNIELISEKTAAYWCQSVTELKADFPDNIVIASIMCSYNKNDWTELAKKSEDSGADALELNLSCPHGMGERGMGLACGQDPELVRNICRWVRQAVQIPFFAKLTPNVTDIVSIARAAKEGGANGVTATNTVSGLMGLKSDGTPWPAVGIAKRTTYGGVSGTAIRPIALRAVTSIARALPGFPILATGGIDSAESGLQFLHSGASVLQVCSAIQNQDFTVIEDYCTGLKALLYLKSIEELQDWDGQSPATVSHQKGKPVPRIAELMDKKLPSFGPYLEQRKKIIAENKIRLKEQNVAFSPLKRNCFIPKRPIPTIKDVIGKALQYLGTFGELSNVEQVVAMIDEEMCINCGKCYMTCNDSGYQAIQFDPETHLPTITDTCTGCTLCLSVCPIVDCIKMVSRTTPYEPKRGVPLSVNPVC

[8] = powder, light-protected container, room temperature; cited from earlier work

CC(C)NC(C)Cc1ccc(I)cc1 (stereo not drawn) [iofetamine, N-isopropyl-p-iodoamphetamine]
plasma elimination half-time, first phase ([1]; biphasic elimination): 1.6 ± 1.2 h
plasma elimination half-time, second phase ([1]; biphasic elimination): 10.9 ± 6.1 h
blood-brain barrier passage ([1]; in vivo): crosses the intact blood-brain barrier

O=NN(CCCl)C(=O)NCCCl [BCNU, 1,3-bis(2-chloroethyl)-1-nitrosourea]
cures [2]: no cures
increase in life span [2]: no increase in life span
antitumor efficacy ([3]; aqueous vehicle, injected intratumorally): had antitumor efficacy, but far less than the same BCNU dose formulated in ethanol
therapeutic benefit ([3]; systemic administration, same dose (25 mg/kg)): no therapeutic benefit
half life in serum [4]: about 15 minutes
blood-brain barrier passage ([5]; in vivo): crosses the blood-brain barrier quite effectively
total dose excreted as respiratory CO2 ([5]; in vivo): about 10%
intact BCNU in serum ([5]; intravenous, after 60 minutes): little intact BCNU

O=c1[nH]c(=O)n([C@H]2C[C@H](O)[C@@H](CO)O2)cc1I [IdUrd, 5-iodo-2′-deoxyuridine]
cytotoxicity to marrow cells relative to IUra (marrow cells): at least 100 times

CCO [ethanol]
maximally tolerated volume extrapolated to normal human brain (rat brain; from rat, by brain mass 2.5 gms vs 1350 gms): 10.8 mL
maximally tolerated volume with no apparent neurologic deficit (rat brain; rat brain): 20 μl
maximally tolerated volume with no apparent neurologic deficit (cat brain; cat brain, unpublished data): 0.4 ml
maximally tolerated volume extrapolated to normal human brain (cat brain; from cat, by brain mass 20 gms vs 1350 gms): 27 mL

Oc1ncc(I)c(O)n1 [IUra, 2,4-dihydroxy-5-iodopyrimidine]
apparent Michaelis constant of disappearance from plasma ([6]; after the infusion, nonlinear): 30 mumol/L
maximum plasma IUra concentration ([6]; following infusion of 500 to 1200 mg/m^2 of IdUrd): 100 mumol/L
plasma IUra relative to simultaneous IdUrd plasma concentration ([6]; following infusion of IdUrd): about 10 times
inhibition of dihydrouracil dehydrogenase [7]: competitive inhibitor
storage stability [8]: 1 year
